# Biological target: T1, Pentachlorophenol 4-monooxygenase (Sphingobium chlorophenolicum, UniProt P42535)
# T1 sequence (P42535 whole entry): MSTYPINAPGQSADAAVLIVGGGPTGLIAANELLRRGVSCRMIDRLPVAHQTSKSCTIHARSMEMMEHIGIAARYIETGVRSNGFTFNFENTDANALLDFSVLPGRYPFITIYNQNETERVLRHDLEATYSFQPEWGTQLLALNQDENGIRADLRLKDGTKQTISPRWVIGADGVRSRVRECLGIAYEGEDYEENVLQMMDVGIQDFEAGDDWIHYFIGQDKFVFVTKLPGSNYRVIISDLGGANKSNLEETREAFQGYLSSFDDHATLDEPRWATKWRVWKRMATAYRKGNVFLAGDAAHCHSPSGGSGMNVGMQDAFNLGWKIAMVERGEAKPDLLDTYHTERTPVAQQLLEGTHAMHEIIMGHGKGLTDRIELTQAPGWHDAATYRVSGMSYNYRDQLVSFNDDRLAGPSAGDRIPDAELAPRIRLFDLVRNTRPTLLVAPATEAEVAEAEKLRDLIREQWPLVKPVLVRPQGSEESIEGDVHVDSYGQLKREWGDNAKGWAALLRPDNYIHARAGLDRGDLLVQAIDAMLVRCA
# Test: Spectroscopic Assay
# Description: Formation of the hydroxylated product and depletion of NADPH were measured following ethyl acetate extraction of the reaction mixture.
row,SMILES,Kd
1,"Oc1c(Cl)c(Cl)cc(Cl)c1Cl [2,3,4,6-Tetrachlorophenol (TCP)]",11 µM
2,"Oc1c(Cl)cc(Cl)cc1Cl [2,4,6-Trichlorophenol (2,4,6-TriCP)]",7 µM
3,"Oc1c(Cl)cccc1Cl [2,6-Dichlorophenol]",45.5 µM
4,Oc1ccccc1Cl [2-Chlorophenol (2-CP)],> 1000 µM
5,"Oc1cc(Cl)cc(Cl)c1 [3,5-Dichlorphenol (3,5-DCP)]",> 500 µM
6,Oc1c(Cl)c(Cl)c(Cl)c(Cl)c1Cl [Pentachlorophenol (PCP)],< 0.05 µM
7,Oc1cc(Cl)c(Cl)c(Cl)c1 [SMR001307309],> 500 µM
8,Oc1c(Cl)c(Cl)c(O)c(Cl)c1Cl [Tetrachlorohydroquinone (TCHQ)],4.2 µM
